Target: MS (malate synthase, GlcB, Rv1837c) (Mycobacterium tuberculosis, UniProt P9WK17)
Experiment: DTNB assay of released CoA-SH at […] nm
Assay type: biochemical

MS (malate synthase, GlcB, Rv1837c), sequence (P9WK17 whole entry, looked up): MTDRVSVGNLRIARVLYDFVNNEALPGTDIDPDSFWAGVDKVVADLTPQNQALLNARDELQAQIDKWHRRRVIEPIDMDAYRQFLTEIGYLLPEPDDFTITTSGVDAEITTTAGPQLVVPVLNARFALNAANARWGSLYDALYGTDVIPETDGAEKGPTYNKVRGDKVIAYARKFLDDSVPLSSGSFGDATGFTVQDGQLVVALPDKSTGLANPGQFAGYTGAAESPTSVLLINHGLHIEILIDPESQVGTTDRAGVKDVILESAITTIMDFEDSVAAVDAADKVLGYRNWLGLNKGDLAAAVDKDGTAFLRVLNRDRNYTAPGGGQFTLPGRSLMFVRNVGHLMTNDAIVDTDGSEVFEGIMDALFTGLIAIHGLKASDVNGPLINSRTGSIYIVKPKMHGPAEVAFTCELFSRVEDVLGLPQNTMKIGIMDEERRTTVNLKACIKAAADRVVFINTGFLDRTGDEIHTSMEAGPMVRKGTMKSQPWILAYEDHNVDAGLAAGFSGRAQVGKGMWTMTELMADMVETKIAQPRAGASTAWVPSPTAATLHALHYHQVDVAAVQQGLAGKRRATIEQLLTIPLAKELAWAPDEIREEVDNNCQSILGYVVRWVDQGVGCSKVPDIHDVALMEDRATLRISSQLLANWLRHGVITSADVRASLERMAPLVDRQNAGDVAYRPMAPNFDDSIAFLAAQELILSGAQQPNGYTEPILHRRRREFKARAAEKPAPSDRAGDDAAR

Row | Structure (SMILES) | IC50 [µM]
1 | C=C(OP(=O)(O)O)C(=O)O [phosphoenolpyruvate] | 374
2 | O=C(O)C(=O)CBr [bromopyruvate] | 114

Source: paper PMC6849348, “Theranostic Application of a Novel G-Quadruplex-Forming DNA Aptamer Targeting Malate Synthase of Mycobacterium tuberculosis” (Molecular Therapy. Nucleic Acids, 2019)
